Test results as given in patent US12291581B2, “Serpin peptides and methods of using the same” (SERPIN PHARMA, LLC, priority 2012, dated 2025).
Entries after “also recorded” stand apart in the source; their conditions may differ.

Tests used:
TLR-2 = target: T1, TLR-2 (Mus musculus, UniProt Q9QUN7); experiment: TLR-2 indicator cell line assay (HEK-Blue mTLR2), secreted alkaline phosphatase; format: cell-based; conditions: 20 μg/ml peptide, 24 hours
T1 construct: host or cells: HEK-Blue mTLR2 (HEK293-derived reporter line, SEAP read-out)
Method: Graph summarizing representative data from assays with an engineered TLR-2 indicator cell line (HEK-Blue™ mTLR2, Invivogen). Cells were incubated with the indicated concentrations of peptide for 24 hours. Upon TLR2 activation, the cells secrete alkaline phosphatase which can be assayed. The assay was done in triplicate and averages with standard deviations are plotted.
Graph summarizing data from an experiment where an engineered TLR-2 indicator cell line (HEK-Blue™ mTLR2, Invivogen) was used to test the impact of substituting amino acid residues of the SP16 peptide with alanine (“alanine scan”). Cells were incubated with 20 μg/ml of the indicated peptides for 24 hours. Upon TLR2 activation, the cells secrete alkaline phosphatase which can be assayed. The assay was done in triplicate and averages are plotted. Peptide sequences are shown in the following figure. *p<0.05, compared with scrambled control (SP34).
We also performed a peptide optimization assay using an alanine scan with the TLR-2 assay. Data was obtained using an experiment with an engineered TLR-2 indicator cell line (HEK-BLUE™ mTLR2, Invivogen). Cells were incubated with the 20 μg/ml of the indicated peptides for 24 hours. Upon TLR2 activation, the cells secrete alkaline phosphatase, which can be assayed. The assay was done in triplicate and averages are plotted. […]

NOD mice = experiment: NOD mouse spontaneous autoimmune (type I) diabetes model; format: in vivo; conditions: groups of 12 NOD mice, vs scrambled control peptide
Method: Groups of 12 animals were injected with SP16, hAAT or scrambled control peptide. Non-fasted blood glucose levels were measured twice a week and animals with two consecutive readings greater than 300 mg/dl were considered diabetic.
NOD (non-obese diabetic) mice spontaneously develop overt, insulin-dependent type I diabetes. The NOD model is recommended by the FDA for preclinical testing of therapeutic agents for type I diabetes. Disease onset typically occurs at 12-14 weeks of age, with peri-insulitis detectable from about 4 weeks of age and developing into severe insulitis at 10 weeks of age. The autoimmune destruction of β-cells is thought to arise from dysregulation of multiple tolerance pathways, leading to islet infiltration with monocytes, predominantly CD4^+ and CD8^+ T cells, and insulitis, with subsequent hypoinsulinemia and hyperglycemia.

LPS challenged mice = experiment: Mouse LPS challenge (sepsis/inflammation) model, serum TNF-alpha by ELISA; format: in vivo; conditions: for anti-inflammatory effect when administered to a mouse model of sepsis (FIG. 10): Table B peptides; for TNF-alpha levels in LPS challenged mice, alanine scanned SP16 peptides (FIG. 10B): compared with Dexamethasone positive control
Method: FIGS. 10A and B. FIG. 10A presents exemplary peptides that were used to reduce TNF-alpha levels in mice subjected to an LPS challenge. […] The mice were treated with alanine scanned SP16 peptide. […] Based on this alanine screen, and without wishing to be bound by a theory, it appears that the C- and N-terminal amino acids contribute to the anti-inflammatory effect of the SP16 peptide. […] Groups of 3 animals were injected with 0.2 mg/kg peptide and subjected to LPS challenge. Serum TNF-alpha levels were determined by ELISA. Several peptides provided the same level of protection as 1 mg/kg Dexamethasone.
The ability of peptide drugs was tested to for their potential for the reduction of inflammatory cytokines following treatment with purified bacterial lipopolysaccharide (LPS)—a major component of bacterial cell wall of Gram-negative bacteria. A model of inflammation was used wherein mice were injected with LPS, which induced a transient immune response and a surge of serum inflammatory cytokines. The immune response peaks after 90 minutes and subsides after 24 hours. The levels of key serum inflammatory markers were compared between mice treated and untreated with LPS 90 minutes after injection.
We designed 18 different peptides based on the hAAT sequence (Accession #AAB59371), and had these synthesized using conventional FMOC chemistry. To assess in vivo anti-inflammatory and therapeutic potential, the peptides were tested in a mouse lipopolysaccharide (LPS) challenge model with serum TNFα levels as readout. Using dexamethasone as reference, groups of 3 animals were IP injected with 0.2 mg/kg peptide 2 hours prior to an LPS challenge, and serum TNFα levels determined 30 min after the LPS challenge, by ELISA. The best performing peptide reduced serum TNFα levels equivalent to those achieved with 1 mg/kg dexamethasone. Next, shortened versions of this peptide were synthesized, tested in the mouse LPS challenge model, and a 17 amino acid peptide, SP16, emerged as a lead development candidate for further characterization. Next, SP16 was tested in a lethal endotoxemia model, which models endotoxemia following acute radiation exposure, where Gram negative bacteria leaking from the gastro-intestinal system can cause lethal endotoxemia.
Mice were injected with 0.5, 0.1, 0.02 and 0.004 mg of each peptide. Mice were also treated with dexamethasone as a positive control and vehicle as a negative control. Two hours later each mouse was injected with LPS. Samples were taken 90 minutes after LPS injection.
To evaluate the effect of different amino acids in the SP16 peptide for the immunomodulating effect, we created an alanine screen. […] The peptides wherein the substitution occurred within amino acids 4-14 of SP16, appeared to maintain and rather improve their capacity to reduce TNF-alpha levels compared to the control Dexamethasone. The LPS mouse model is an established model for sepsis in humans and thus we conclude that peptides wherein the amino acids 1-3 and 15-17 are present, can be effectively used in humans to treat or prevent sepsis in conditions, such as burns or acute radiation, which expose humans to a high risk of developing endotoxemia.

[1] = Pharmacokinetic profile after intravenous injection, plasma by LC/MS/MS; format: in vivo, rats; conditions: IV 5 mg/kg
Method: In performing the assay, three normal rats were injected intravenously with 5 mg/kg SP16 and the plasma concentration of SP16 established at 8 time points following the injection. […] The assay was executed by Apredica, Boston, Mass.

[2] = test system: 111 in vitro assay targets (human receptors); experiment: Human receptor panning, GenSEP Explorer panel
Excerpt: In addition, we also performed a profile using human receptor panning. The GenSEP Explorer panel contains 111 in vitro assay targets carefully selected to assess drug/chemical biological activities. Assay categories include GPCRs, Voltage-Gated Ion Channels, Ligand-Gated Ion Channels, Neurotransmitter transporters, Nuclear Receptors and Steroids as well as a diverse set of biochemical targets including phosphodiesterases, kinases and other relevant enzymes.

hERG = hERG (Homo sapiens, UniProt Q12809); format: cell-based
hERG, sequence (Q12809 whole entry): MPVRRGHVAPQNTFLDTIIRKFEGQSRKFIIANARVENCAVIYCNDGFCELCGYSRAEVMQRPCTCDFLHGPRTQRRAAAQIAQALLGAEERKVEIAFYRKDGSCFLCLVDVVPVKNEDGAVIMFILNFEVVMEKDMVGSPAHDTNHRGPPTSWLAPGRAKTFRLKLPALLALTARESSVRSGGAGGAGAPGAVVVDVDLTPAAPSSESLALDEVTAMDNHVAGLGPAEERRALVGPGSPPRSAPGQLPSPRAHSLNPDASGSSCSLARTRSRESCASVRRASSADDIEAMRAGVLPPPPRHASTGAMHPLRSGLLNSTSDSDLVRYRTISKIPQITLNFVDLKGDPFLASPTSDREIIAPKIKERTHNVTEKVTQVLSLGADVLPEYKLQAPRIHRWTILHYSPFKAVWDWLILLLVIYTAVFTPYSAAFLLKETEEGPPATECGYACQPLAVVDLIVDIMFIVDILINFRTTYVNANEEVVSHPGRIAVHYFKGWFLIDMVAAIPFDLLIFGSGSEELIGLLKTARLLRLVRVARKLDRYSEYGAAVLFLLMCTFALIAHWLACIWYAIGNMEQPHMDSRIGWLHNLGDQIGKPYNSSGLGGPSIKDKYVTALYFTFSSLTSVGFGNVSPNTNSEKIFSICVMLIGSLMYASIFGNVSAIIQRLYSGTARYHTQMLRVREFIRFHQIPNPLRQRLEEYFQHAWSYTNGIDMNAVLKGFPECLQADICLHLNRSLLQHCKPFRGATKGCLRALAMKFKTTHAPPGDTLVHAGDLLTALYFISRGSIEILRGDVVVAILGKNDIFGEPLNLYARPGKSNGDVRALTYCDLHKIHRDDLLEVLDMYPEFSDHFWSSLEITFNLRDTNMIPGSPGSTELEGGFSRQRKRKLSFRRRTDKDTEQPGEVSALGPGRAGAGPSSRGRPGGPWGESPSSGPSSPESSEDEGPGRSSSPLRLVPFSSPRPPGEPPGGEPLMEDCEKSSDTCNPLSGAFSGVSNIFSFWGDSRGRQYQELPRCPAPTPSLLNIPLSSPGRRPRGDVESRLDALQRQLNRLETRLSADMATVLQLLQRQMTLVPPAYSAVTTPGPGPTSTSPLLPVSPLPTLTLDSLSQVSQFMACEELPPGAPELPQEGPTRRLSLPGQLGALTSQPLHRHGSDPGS
Excerpt: The SP16 safety profile also included hERG data. […] The study was executed by Apredica, Boston, MA.

T1 sequence (Q9QUN7 25-784): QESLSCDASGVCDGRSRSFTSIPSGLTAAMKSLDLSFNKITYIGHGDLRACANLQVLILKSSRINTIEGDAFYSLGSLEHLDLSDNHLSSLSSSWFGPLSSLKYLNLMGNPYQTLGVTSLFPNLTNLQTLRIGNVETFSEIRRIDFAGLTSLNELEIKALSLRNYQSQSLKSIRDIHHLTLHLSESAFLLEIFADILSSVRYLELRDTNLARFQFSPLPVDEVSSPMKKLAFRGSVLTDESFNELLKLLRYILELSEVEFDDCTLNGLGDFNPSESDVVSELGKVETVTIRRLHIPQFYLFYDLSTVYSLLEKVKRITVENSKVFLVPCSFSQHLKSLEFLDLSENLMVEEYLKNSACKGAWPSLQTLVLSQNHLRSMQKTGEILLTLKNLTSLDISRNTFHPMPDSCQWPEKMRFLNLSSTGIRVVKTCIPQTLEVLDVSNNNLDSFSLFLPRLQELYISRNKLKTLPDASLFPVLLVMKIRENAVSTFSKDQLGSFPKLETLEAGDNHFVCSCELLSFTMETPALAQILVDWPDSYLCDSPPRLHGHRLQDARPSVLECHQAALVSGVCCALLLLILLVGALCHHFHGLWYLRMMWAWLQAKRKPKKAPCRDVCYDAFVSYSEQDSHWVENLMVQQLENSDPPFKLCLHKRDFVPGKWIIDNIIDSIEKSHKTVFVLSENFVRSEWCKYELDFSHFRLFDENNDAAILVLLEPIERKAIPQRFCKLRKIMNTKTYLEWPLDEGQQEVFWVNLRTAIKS

With “A A A N K P F V F L M I E Q N T K (AAANKPFVFLMIEQNTK; listed as Homo sapiens) [SP37, SP16 with residues 1-3 substituted with alanines]” the “impact on TLR-2 signaling, alanine scan, FIG. 12/13” value (TLR-2) was “no impact on TLR2”.

With “hAAT: human alpha-1-antitrypsin, parent protein of SP16” the “incidence / development of diabetes (two consecutive non-fasted glucose readings greater than 300 mg/dl)” value (NOD mice) was “delayed and reduced the incidence of diabetes”.

In the case of “V K F A A A F V F L M I E Q N T K (VKFAAAFVFLMIEQNTK; listed as Homo sapiens) [SP40, alanine scanned SP16 peptide]”, the “anti-inflammatory effect when administered to a mouse model of sepsis (FIG. 10)” value (from here on “anti-inflammatory effect”) (LPS challenged mice) is reported as “particularly good anti-inflammatory effect” and the “TNF-alpha levels in LPS challenged mice, alanine scanned SP16 peptides (FIG. 10B)” value (shortened to “TNF-alpha levels in LPS challenged mice”) (LPS challenged mice) is reported as “reduce TNF-alpha levels more than Dexamethasone”.

For CC[C@H](C)[C@H](NC(=O)[C@H](CCSC)NC(=O)[C@H](CC(C)C)NC(=O)[C@H](Cc1ccccc1)NC(=O)[C@@H](NC(=O)[C@H](Cc1ccccc1)NC(=O)[C@@H]1CCCN1C(=O)[C@H](CCCCN)NC(=O)[C@H](CC(N)=O)NC(=O)[C@H](Cc1ccccc1)NC(=O)[C@H](CCCCN)NC(=O)[C@@H](N)C(C)C)C(C)C)C(=O)N[C@@H](CCC(=O)O)C(=O)N[C@@H](CCC(N)=O)C(=O)N[C@@H](CC(N)=O)C(=O)N[C@H](C(=O)N[C@@H](CCCCN)C(=O)O)[C@@H](C)O [SP16], the “Last Time point” value ([1]; normal rats) was 8.0, the t1/2 ([1]; normal rats) was 1.9 h and the Cmax ([1]; three normal rats, plasma) was 2500 ng/mL. The “T1/2 (half-life)” value ([1]; three normal rats, plasma) was 1.9 h, the “effect on the whole GenSEP Explorer panel” value ([2]; 111 human receptors) was “not able to identify any hits; also recorded: no effect on 111 human receptors” and the Percent inhibition ([2]; Brain/gut peptides, 15 receptors tested) was “Insignificant”. The Percent inhibition ([2]; Cell-Based, Functional, 1 receptor tested) was “Insignificant”, the Percent inhibition ([2]; Enzymes, 20 receptors tested) was “Insignificant” and the Percent inhibition ([2]; Enzymes, Kinases, 11 receptors tested) was “Insignificant”. The Percent inhibition ([2]; Growth factors & hormones, 2 receptors tested) was “Insignificant”, the Percent inhibition ([2]; Ion Channels, 8 receptors tested) was “Insignificant” and the Percent inhibition ([2]; Neurotransmitter Related, 47 receptors tested) was “Insignificant”. The Percent inhibition ([2]; Second Messengers, 3 receptors tested) was “Insignificant”, the Percent inhibition ([2]; Steroids, 4 receptors tested) was “Insignificant” and the “comment on hERG inhibition” value (hERG; hERG FastPatch, 0.008-25 μM) was “No concentration-dependent”. The IC50 (hERG; hERG FastPatch, test conc 0.008-25 μM (SP16), 0.01-10 μM (Quinidine)) was over 25 µM and the “hERG inhibition” value (hERG; up to 25 μM) was “does not impact hERG activity; also recorded: does not inhibit hERG”.

With “V K F N K P A A A L M I E Q N T K (VKFNKPAAALMIEQNTK; listed as Homo sapiens) [SP43, alanine scanned SP16 peptide]” the “anti-inflammatory effect” value (LPS challenged mice) was “particularly good anti-inflammatory effect” and the “TNF-alpha levels in LPS challenged mice” value (LPS challenged mice) was “reduce TNF-alpha levels more than Dexamethasone”.

With “V K F N K P F V F A A A E Q N T K (VKFNKPFVFAAAEQNTK; listed as Homo sapiens) [SP46, alanine scanned SP16 peptide]” the “anti-inflammatory effect” value (LPS challenged mice) was “particularly good anti-inflammatory effect” and the “TNF-alpha levels in LPS challenged mice” value (LPS challenged mice) was “reduce TNF-alpha levels more than Dexamethasone”.

For “V K F N K P F V F L M I A A A T K (VKFNKPFVFLMIAAATK; listed as Homo sapiens) [SP49, alanine scanned SP16 peptide]”, the “anti-inflammatory effect” value (LPS challenged mice) was “particularly good anti-inflammatory effect” and the “TNF-alpha levels in LPS challenged mice” value (LPS challenged mice) was “reduce TNF-alpha levels more than Dexamethasone”.
